Test results reported in patent publication US9932349B2 (priority 2000, dated 2018).
Several values for one entry are separate records, joined by “and”; a condition that tells them apart may be missing. Equal values may be shown once. Read-outs that look alike come from different tables or passages of the source.

How the values were obtained:
human δ opioid receptor = molecular target: T1, human δ opioid receptor (Homo sapiens, UniProt P41143); assay: binding to cloned human receptor in CHO cell membranes, [3H]Naltrindole
T1 construct: expressed in transfected cells; host or cells: Chinese hamster ovary (CHO) cells
T1 sequence (P41143 whole entry): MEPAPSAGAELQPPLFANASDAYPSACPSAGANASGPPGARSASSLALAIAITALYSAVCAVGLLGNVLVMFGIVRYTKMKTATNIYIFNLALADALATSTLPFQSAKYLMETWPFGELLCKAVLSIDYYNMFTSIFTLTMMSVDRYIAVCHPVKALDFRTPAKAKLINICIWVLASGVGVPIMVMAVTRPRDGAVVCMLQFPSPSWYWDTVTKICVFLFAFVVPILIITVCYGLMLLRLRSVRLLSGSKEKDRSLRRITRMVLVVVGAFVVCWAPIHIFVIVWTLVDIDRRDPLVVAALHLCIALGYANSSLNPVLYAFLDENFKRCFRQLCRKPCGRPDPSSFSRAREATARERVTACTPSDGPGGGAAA
Experimental: The affinities of the compounds of the invention were determined in guinea pig brain cells by the method described in Wentland et al. Biorgan. Med. Chem. Lett. 9. […] CHO cell membranes, expressing the human μ, δ, or κ opioid receptor, were incubated with 12 different concentrations of the compounds in the presence of receptor-specific radioligands at 25° C., in a final volume of 1 ml of 50 mM Tris-HCl, pH 7.5. Nonspecific binding was determined using 1 μM naloxone. Data are the mean value ±S.E.M. from three experiments, performed in triplicate.

human κ opioid receptor = molecular target: T2, human κ opioid receptor (Homo sapiens, UniProt P41145); assay: biochemical; type: binding
T2 construct: expressed in transfected cells; host or cells: Chinese hamster ovary (CHO) cells
T2 sequence (P41145 whole entry): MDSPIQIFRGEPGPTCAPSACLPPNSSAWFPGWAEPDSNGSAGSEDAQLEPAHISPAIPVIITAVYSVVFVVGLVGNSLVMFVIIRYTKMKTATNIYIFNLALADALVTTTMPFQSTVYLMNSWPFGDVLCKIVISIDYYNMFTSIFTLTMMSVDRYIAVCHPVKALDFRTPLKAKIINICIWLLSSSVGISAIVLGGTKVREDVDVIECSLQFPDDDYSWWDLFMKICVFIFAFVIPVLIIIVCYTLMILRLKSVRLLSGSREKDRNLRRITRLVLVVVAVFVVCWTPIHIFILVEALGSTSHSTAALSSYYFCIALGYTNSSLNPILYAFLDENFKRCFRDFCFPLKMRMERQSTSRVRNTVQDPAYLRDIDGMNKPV

κ opioid receptor = molecular target: T3, κ opioid receptor (Cavia porcellus, UniProt P41144); assay: biochemical; type: binding, guinea pig
T3 construct: determined in guinea pig brain cells; from tissue; host or cells: guinea pig brain
T3 sequence (P41144 whole entry): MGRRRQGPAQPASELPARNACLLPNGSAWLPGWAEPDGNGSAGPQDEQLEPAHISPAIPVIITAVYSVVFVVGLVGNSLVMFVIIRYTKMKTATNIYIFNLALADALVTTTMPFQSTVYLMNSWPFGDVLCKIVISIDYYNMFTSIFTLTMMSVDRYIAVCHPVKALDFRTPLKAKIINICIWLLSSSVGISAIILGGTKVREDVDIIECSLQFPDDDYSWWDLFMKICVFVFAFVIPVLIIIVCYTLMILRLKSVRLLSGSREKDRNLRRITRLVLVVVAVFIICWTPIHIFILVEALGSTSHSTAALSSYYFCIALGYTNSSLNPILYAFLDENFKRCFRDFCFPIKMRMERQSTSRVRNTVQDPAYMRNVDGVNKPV

human μ opioid receptor = molecular target: T4, human μ opioid receptor (Homo sapiens, UniProt P35372); assay: biochemical; type: binding
T4 construct: expressed in transfected cells; host or cells: Chinese hamster ovary (CHO) cells
T4 sequence (P35372 whole entry): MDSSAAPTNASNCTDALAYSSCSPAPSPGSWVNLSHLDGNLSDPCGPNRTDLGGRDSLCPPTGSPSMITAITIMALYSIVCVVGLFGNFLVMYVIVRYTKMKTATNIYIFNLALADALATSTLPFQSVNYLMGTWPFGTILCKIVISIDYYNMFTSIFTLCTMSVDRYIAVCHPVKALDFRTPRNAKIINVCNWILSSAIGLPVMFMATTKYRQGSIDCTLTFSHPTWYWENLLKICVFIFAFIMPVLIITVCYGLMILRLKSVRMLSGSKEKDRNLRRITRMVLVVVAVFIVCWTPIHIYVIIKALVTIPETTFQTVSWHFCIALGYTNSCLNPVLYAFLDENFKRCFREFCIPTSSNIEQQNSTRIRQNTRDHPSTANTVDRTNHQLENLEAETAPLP

δ opioid receptor = molecular target: T5, δ opioid receptor (Cavia porcellus, UniProt A0A286XTF2); assay: biochemical; type: binding, guinea pig
T5 construct: determined in guinea pig brain cells; from tissue; host or cells: guinea pig brain
T5 sequence (A0A286XTF2 1-366): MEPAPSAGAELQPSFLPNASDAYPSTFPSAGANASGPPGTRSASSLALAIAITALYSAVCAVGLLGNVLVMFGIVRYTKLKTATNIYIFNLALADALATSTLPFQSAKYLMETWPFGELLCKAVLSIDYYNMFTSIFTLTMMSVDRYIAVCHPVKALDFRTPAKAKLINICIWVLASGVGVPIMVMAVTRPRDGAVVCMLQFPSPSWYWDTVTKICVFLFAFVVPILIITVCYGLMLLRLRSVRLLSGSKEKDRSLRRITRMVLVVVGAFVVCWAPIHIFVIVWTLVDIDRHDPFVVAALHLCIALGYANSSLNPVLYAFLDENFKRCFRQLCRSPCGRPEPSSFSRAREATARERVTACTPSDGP

mice = assay: mouse acetic acid writhing test (antinociceptive activity); type: in vivo; settings: for duration of action (antinociception, mouse writhing test): 1.0 mg/kg i.p.; for ED50 in the mouse acetic acid writhing test: administered i.c.v.
μ opioid receptor = μ opioid receptor (Cavia porcellus, UniProt A0ACM8Q262); type: binding, guinea pig
Chain of μ opioid receptor (A0ACM8Q262 1-400): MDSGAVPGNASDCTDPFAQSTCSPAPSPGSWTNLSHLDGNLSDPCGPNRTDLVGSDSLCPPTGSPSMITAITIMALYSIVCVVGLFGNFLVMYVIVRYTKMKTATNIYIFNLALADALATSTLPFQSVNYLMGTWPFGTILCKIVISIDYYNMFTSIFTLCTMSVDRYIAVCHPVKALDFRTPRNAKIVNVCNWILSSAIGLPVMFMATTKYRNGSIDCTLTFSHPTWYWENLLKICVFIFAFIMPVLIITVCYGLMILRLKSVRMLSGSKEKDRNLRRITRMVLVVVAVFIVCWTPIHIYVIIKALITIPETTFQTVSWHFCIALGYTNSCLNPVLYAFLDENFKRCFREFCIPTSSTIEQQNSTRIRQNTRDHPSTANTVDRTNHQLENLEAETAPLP

Work on `CC1C2C(=O)c3ccc(O)cc3[C@@]1(C)CCN2CC1CC1` (mixture of isomers) [(±)-ketocyclazocine, Ketocyclazocine, reference compound] yielded a Ki (human δ opioid receptor) of 0.13 ± 0.014 µM, a Ki (human κ opioid receptor) of 0.001 ± 1.9e-05 µM and a Ki (κ opioid receptor; [3H] U69,593 (κ)) of 0.001 ± 0.00024 µM. For the same compound, the Ki (human μ opioid receptor) was 0.0017 ± 0.00021 µM and the Ki (δ opioid receptor; [3H] Naltrindole (δ)) was 0.02 ± 0.0027 µM.
For `C[C@H]1C2Cc3ccc(C(N)=O)cc3[C@@]1(C)CCN2CC1CC1` (racemic) [Example 4, (±)-3-(Cyclopropylmethyl)-1,2,3,4,5,6-hexahydro-cis-6,11-dimethyl-2,6-methano-3-benzazocin-8-carboxamide], the Ki (δ opioid receptor; Ki [3H] Naltrindole (δ)) was 0.0083 µM and 0.0049 µM, the “duration of action (antinociception, mouse writhing test)” value (mice) was 15 h and the “ED50 in the mouse acetic acid writhing test” value (mice) was 0.21 nmol.
`CC1C2Cc3ccc(NC(N)=O)cc3C1(C)CCN2CC1CC1` (racemic) [Example 36] showed a Ki (κ opioid receptor; read-out: Ki [3H] U69,593 (κ)) of 0.015 ± 0.0014 µM, a Ki (μ opioid receptor; read-out: Ki [3H] DAMGO (μ)) of 0.02 ± 0.00066 µM and a Ki (δ opioid receptor; read-out: Ki [3H] Naltrindole (δ)) of 0.09 ± 0.012 µM.
Compound `CC1C2Cc3ccc(NC(N)=S)cc3C1(C)CCN2CC1CC1` (racemic) [Example 37] has a Ki (human δ opioid receptor; read-out: Ki [3H] Naltrindole (δ), Table 1, footnote a: chinese hamster ovary rather than guinea pig brain) of 0.44 ± 0.072 µM, a Ki (human κ opioid receptor; read-out: Ki [3H] U69,593 (κ)) of 0.004 ± 0.00054 µM and a Ki (human μ opioid receptor; read-out: Ki [3H] DAMGO (μ)) of 0.01 ± 0.0017 µM.
In the case of `NC(=O)c1ccc2c3c1OC1C(=O)CCC4(O)C(C2)N(CC2CC2)CCC314` (stereo not shown) [Example 32], the Ki (κ opioid receptor; read-out: [3H] U69,593 (κ)) is reported as 0.022 ± 0.00085 µM, the Ki (μ opioid receptor; read-out: [3H] DAMGO (μ)) is reported as 0.0019 ± 0.00021 µM and the Ki (δ opioid receptor; read-out: [3H] Naltrindole (δ)) is reported as 0.11 ± 0.0081 µM.
With `CCOC(=O)c1ccc2c3c1OC1C(=O)CCC4(O)C(C2)N(CC2CC2)CCC314` (stereo not shown) [Example 33] the Ki (κ opioid receptor; read-out: [3H] U69,593 (κ)) was 0.016 ± 0.0007 µM, the Ki (μ opioid receptor; read-out: [3H] DAMGO (μ)) was 0.024 ± 0.0017 µM and the Ki (δ opioid receptor; read-out: [3H] Naltrindole (δ)) was 0.97 ± 0.155 µM.
`CC1C2Cc3ccc(CC#N)cc3C1(C)CCN2CC1CC1` (stereo not shown) [Example 38] was tested, and the Ki (human δ opioid receptor) was 2 ± 0.685 µM, the Ki (human κ opioid receptor) was 0.0029 ± 0.00036 µM and the Ki (human μ opioid receptor) was 0.0033 ± 0.0015 µM.
Work on `CC1C2Cc3ccc(C=NO)cc3C1(C)CCN2CC1CC1` (stereo not shown) [Example 39] yielded a Ki (human δ opioid receptor) of 0.14 ± 0.015 µM, a Ki (human κ opioid receptor) of 0.00073 ± 3e-05 µM and a Ki (human μ opioid receptor) of 0.018 ± 0.0018 µM.
`N#Cc1ccc2c(c1O)[C@]13CCN(CC4CCC4)[C@H](C2)[C@]1(O)CCC(=O)C3` [Example 43] was tested, and the Ki (human δ opioid receptor) was 0.082 ± 0.024 µM, the Ki (human κ opioid receptor) was 0.0026 ± 0.00021 µM and the Ki (human μ opioid receptor) was 0.00035 ± 9.2e-05 µM.
Work on `Oc1ccc2c(c1)C13CCCCC1(O)C(C2)N(CC1CCC1)CC3` (stereo not shown) [butorphanol, Butorphanol, reference compound] yielded a Ki (human δ opioid receptor) of 0.012 ± 0.0038 µM and a Ki (human κ opioid receptor) of 0.00022 ± 2.3e-05 µM.
“Cyclazocine [(±)-Cyclazocine, reference compound]” was tested, and the Ki (μ opioid receptor; read-out: [3H] DAMGO (μ)) was 0.00032 ± 2e-05 µM, the “duration of action (antinociception, mouse writhing test)” value (mice) was “ca. 2 hr” and the “ED50 in the mouse acetic acid writhing test” value (mice) was 2.9 nmol.
